The values that follow come from patent publication US20200010519A1, “NUCLEASE FUSIONS FOR ENHANCING GENOME EDITING BY HOMOLOGY-DIRECTED TRANSGENE INTEGRATION” (INSTITUT NATIONAL DE LA SANTE ET DE LA RECHERCHE …, priority 2017, published 2020).

Assay [1] deals with JAK (spacer 54). The assay can be described thus: Indel mutation patterns by deep sequencing of PCR amplicons, HEK293 cells. The format is cell-based, human.
Assay [2] relates to JAK and PCSK genes, AAVS1 locus. The assay can be described thus: Indel mutation patterns, all three guide RNAs taken together, HEK293 cells. The conditions noted are these: compared to Cas9, three guide RNAs. The assay is classed as cell-based, human.

As for `O=c1cc(N2CCOCC2)oc2c(-c3cccc4c3sc3ccccc34)cccc12` [NU7441], the “reduction of the two most frequent mutations observed with Cas9” value in assay [1] was 10 fold. In assay [2], the “indels with increased frequency that were deletions flanked by micro-homologies of 2 or more nucleotides” value is on record as 10 out of 12.
